# Source: patent US4180582A, “6-n-Propyl-8-methoxy-methyl or methylmercaptomethylergolines and related compounds as prolactin inhibitors and to treat Parkinson's syndrome” (priority 1979, dated 1979)
# Where a name gives a salt, the structure may show the parent alone.
# Key:
# [1] = tested on: dopamine receptors; assay: inhibition of high affinity binding of tritiated dopamine to dopamine receptors in membranes from striatal synaptosomes; set-up: species or system bovine; conditions: in words
# [2] = tested on: serotonin; assay: serotonin agonism; conditions: in words
# [3] = tested on: prolactin; conditions: in words; cited from earlier work
# [4] = tested on: Parkinsonism; conditions: in words; cited from earlier work
# [5] = tested on: dopamine receptors; conditions: in words; cited from earlier work
# [6] = tested on: 6-hydroxydopamine-lesioned rats; assay: turning behavior test in 6-hydroxydopamine-lesioned rats; assay type: in vivo, rat; conditions: for Average Number of Turns/rat: first 15 minutes after end of latency period
# Experimental: In this test, nigro-neostriatal-lesioned rats are employed, which are prepared by the procedure of Ungerstedt and Arbuthnott, Brain Res, 24, 485 (1970). A compound having dopamine agonist activity causes the rats to turn in circles contralateral to the side of the lesion. After a latency period, which varies from compound to compound, the number of turns is counted over a 15-minute period.
# The compounds were dissolved in water and the aqueous solution injected into the rat by the intraperitoneal route.
# [7] = tested on: prolactin; assay: inhibition of prolactin secretion in reserpine-treated male rats; assay type: in vivo, rat (Sprague-Dawley); set-up: Serum Prolactin Level: unit not given here; conditions: for Percent Inhibition of Serum Prolactin: vs. control of same experiment
# Experimental: Adult male rates of the Sprague-Dawley strain weighing about 200 g. were housed in an air-conditioned room with controlled lighting (lights on 6 a.m.-8 p.m.) and fed lab chow and water ad libitum. Each rat received an intraperitoneal injection of 2.0 mg. of reserpine in aqueous suspension 18 hours before administration of the ergoline derivative. The purpose of the reserpine was to keep prolactin levels uniformly elevated. The compounds under test were dissolved in 10 percent ethanol at a concentration of 10 mcg.ml. and were injected intraperitoneally at a standard dose of 50 mcg/kg. Each compound was administered to a group of 10 rats, and a control group of 10 intact males received an equivalent amount of 10 percent ethanol. One hour after treatment all rats were killed by decapitation, and 150 μl aliquots of serum were assayed for prolactin. The results were evaluated statistically using Student's "t" test to calculate the level of significance, "p", of the changes in prolactin level.
# The difference between the prolactin level of the treated rats and prolactin level of the control rats, divided by the prolactin level of the control rats gives the percent inhibition of prolactin secretion attributable to the compounds of this invention. In the table, column 1 gives the name of the compound; column 2, the prolactin level for each group of rats; column 3, the percent prolactin inhibition; and column 4, the level of significance. The data were collected from three separate experiments, each with its own control, and Table 2 sets forth the results obtained by experiment.
# [8] = in words; cited from earlier work
# [9] = 50 mcg/kg i.p., one hour after treatment
structure (smiles),measurement,setting,value
CCCN1C[C@H](CSC)C[C@@H]2c3cccc4[nH]cc(c34)C[C@H]21 [D-6-n-Propyl-8β-methylmercaptomethylergoline],inhibition of high affinity binding of tritiated dopamine,[1],extremely potent inhibitors
same,serotonin agonist / antagonist activity,[2],serotonin agonists rather than serotonin antagonists
CC(C)C[C@H]1C(=O)N2CCC[C@H]2[C@]2(O)O[C@](NC(=O)[C@@H]3C=C4c5cccc6[nH]c(Br)c(c56)C[C@H]4N(C)C3)(C(C)C)C(=O)N12 (stereo in doubt) [2-bromo-α-ergokryptine],activity as prolactin inhibitors,[3],activity as prolactin inhibitors
same,usefulness in the treatment of Parkinsonism,[4],useful in the treatment of Parkinsonism
same,dopamine receptor stimulation,[5],stimulate dopamine receptors
CC(C)C1C(=O)N2CCCC2C2(O)OC(NC(=O)C3CC4c5cccc6[nH]cc(c56)CC4N(C)C3)(C(C)C)C(=O)N12 (stereo not shown) [dihydroergocornine],activity as prolactin inhibitors,[3],activity as prolactin inhibitors
CCN1C[C@H](CSC)C[C@@H]2c3cccc4[nH]cc(c34)C[C@H]21 [D-6-ethyl-8β-methylmercaptomethylergoline mesylate],% of Rats Exhibiting Turning Behavior,[6]; IP dose 1 mg/kg,100%
same,Duration of Effect,[6]; IP dose 1 mg/kg,≥ 2 h
same,Latency of Effect,[6]; IP dose 1 mg/kg,9 min
same,Percent Inhibition of Serum Prolactin,[7]; [9],91%
CC(C)[C@H]1C(=O)N2CCC[C@H]2[C@]2(O)O[C@](NC(=O)[C@@H]3C=C4c5cccc6[nH]cc(c56)C[C@H]4N(C)C3)(C(C)C)C(=O)N12 [ergocornine],activity as prolactin inhibitors,[3],activity as prolactin inhibitors
same,dopamine receptor stimulation,[5],stimulate dopamine receptors
CN1C[C@H](CC#N)C[C@@H]2c3cccc4[nH]c(Cl)c(c34)C[C@H]21 [legotrile],usefulness in the treatment of Parkinsonism,[4],useful in the treatment of Parkinsonism
CCCN1C[C@H](CSC)C[C@@H]2c3cccc4[nH]cc(c34)C[C@H]21 [D-6-n-propyl-8β-methylmercaptomethylergoline methanesulfonate],Duration of Effect,[6]; IP dose 1 mg/kg,≥ 24 h
same,relative potency in the turning behavior test,"[6]; vs. corresponding D-6-methyl derivative, dose response curves",about 30 times
same,relative potency as a prolactin inhibitor,"[7]; vs. corresponding D-6-methyl compound, dose response curves",about 100 times
CCCN1C[C@H](CSC)C[C@@H]2c3cccc4[nH]c(Br)c(c34)C[C@H]21 [D-2-bromo-6-n-propyl-8β-methylmercaptomethylergoline mesylate],% of Rats Exhibiting Turning Behavior,[6]; IP dose 1 mg/kg,100%
same,Duration of Effect,[6]; IP dose 1 mg/kg,1 h
same,Latency of Effect,[6]; IP dose 1 mg/kg,5 min
same,Average Number of Turns/rat,[6]; IP dose 1 mg/kg,71 Turns/rat
same,Percent Inhibition of Serum Prolactin,[7]; [9],89%
"N[C@@H](Cc1ccc(O)c(O)c1)C(=O)O [Example 1-dopa, 1-dihydroxyphenylalanine]",metabolism,[8],rapidly metabolized
CCCN1C[C@H](CSC)C=C2c3cccc4[nH]cc(c34)C[C@H]21 [D-6-n-propyl-8β-methylmercaptomethyl-9-ergolene],% of Rats Exhibiting Turning Behavior,[6]; IP dose 1 mg/kg,100%
same,Duration of Effect,[6]; IP dose 1 mg/kg,≥ 2 h
same,Latency of Effect,[6]; IP dose 1 mg/kg,4 min
same,Average Number of Turns/rat,[6]; IP dose 1 mg/kg,200 Turns/rat
same,Percent Inhibition of Serum Prolactin,[7]; [9],81%
"CSC[C@@H]1C[C@@H]2c3cccc4[nH]cc(c34)C[C@H]2N(C)C1 [D-6-methyl-8β-methylmercaptomethylergoline mesylate, reference compound]",% of Rats Exhibiting Turning Behavior,[6]; IP dose 1 mg/kg,50%
same,Duration of Effect in Hours,[6]; IP dose 1 mg/kg,~ 2 Hours
same,Average Number of Turns/rat,[6]; IP dose 1 mg/kg,51 Turns/rat
same,Percent Inhibition of Serum Prolactin,[7]; [9],58%
CCCN1C[C@H](COC)C[C@@H]2c3cccc4[nH]cc(c34)C[C@H]21 [D-6-n-propyl-8β-methoxymethylergoline methanesulfonate],% of Rats Exhibiting Turning Behavior,[6]; IP dose 1 mg/kg,100%
same,Duration of Effect,[6]; IP dose 1 mg/kg,≥ 2 h
same,Latency of Effect,[6]; IP dose 1 mg/kg,6 min
same,Percent Inhibition of Serum Prolactin,[7]; [9],96%
CN1CC(CC#N)C[C@@H]2c3cccc4[nH]cc(c34)C[C@H]21 (stereo partly drawn) [D-6-methyl-8-cyanomethylergoline],activity as prolactin inhibitors,[3],activity as prolactin inhibitors
CCCN1CC(CSC)=C[C@@H]2c3cccc4[nH]cc(c34)C[C@H]21 [D-6-n-propyl-8-methylmercaptomethyl-8-ergolene maleate],% of Rats Exhibiting Turning Behavior,[6]; IP dose 1 mg/kg,100%
same,Duration of Effect,[6]; IP dose 1 mg/kg,1 h
same,Latency of Effect,[6]; IP dose 1 mg/kg,4 min
same,Percent Inhibition of Serum Prolactin,[7]; [9],91%
CCCN1C[C@H](C[S+](C)[O-])C[C@@H]2c3cccc4[nH]cc(c34)C[C@H]21 (stereo partly drawn) [D-6-n-propyl-8β-methylsulfinylmethylergoline mesylate],% of Rats Exhibiting Turning Behavior,[6]; IP dose 1 mg/kg,100%
same,Duration of Effect,[6]; IP dose 1 mg/kg,1 h
same,Latency of Effect,[6]; IP dose 1 mg/kg,7 min
same,Average Number of Turns/rat,[6]; IP dose 1 mg/kg,65 Turns/rat
same,Serum Prolactin Level,"[7]; 50 mcg/kg i.p., one hour after treatment, reserpine-treated male rats",3.3
same,Percent Inhibition of Serum Prolactin,[7]; [9],92%
